Results from patent US20110118218A1, “TREATING HYPERTENSION WITH 25-HYDROXYVITAMIN D3” (priority 2008, published 2011).

Columns and labels:
[1] = cited from earlier work
[2] = Human clinical trial: blood pressure after daily/weekly oral treatment for 4 months; type: in vivo; details: for Diastolic blood pressure (GLM least square mean) / Systolic blood pressure (GLM least square mean): healthy postmenopausal women, 20 μg per day or 140 μg per week oral, repeated measurement analysis over 13 visits adjusted for baseline blood pressure and time; for Effect on blood pressure (in words): mildly hypertensive subjects, none above 146/95 mmHg
From the text: Each group includes five subjects. They are followed for four months in Ziirich, Switzerland during the winter.
Equimolar quantities of both substances were investigated. […] As the maximum pre-existing baseline concentration of 25-hydroxyvitamin D3 will be 50 nmol/L, it is not anticipated that subjects will approach the range where disturbance in Ca^2+ homeostasis has been observed.
Each dosage was consumed orally at breakfast.
For blood pressure assessments a standard protocol was used (OMRON professional apparatus) to measure diastolic and systolic blood pressure in Week 1 on visit 2 (baseline) and the remaining 4 days of Week 1. The assessments continued at each visit of Weeks 2, 3, 5, 7, 9, 11, 13 and 15.
Treatment duration was 4 months.

[3] = 20 μg per day or 140 μg per week, 4 months, 13 visits, adjusted for baseline blood pressure and time
[4] = daily or weekly treatment, identical dosages

Row | SMILES | Blood concentration of 25-hydroxyvitamin D3 at which hypercalcemia may occur ([1]; in vivo) | Diastolic blood pressure, change vs. daily/weekly Vitamin D3 [2, 3] [mmHg] | Systolic blood pressure, change vs. daily/weekly Vitamin D3 [2, 3] [mmHg] | Reduction of diastolic blood pressure versus Vitamin D3 [2, 4] [mmHg] | Reduction of systolic blood pressure versus Vitamin D3 [2, 4] [mmHg] | Diastolic blood pressure (GLM least square mean) ([2]; 4 months) [mmHg] | Systolic blood pressure (GLM least square mean) ([2]; 4 months) [mmHg] | Effect on blood pressure (in words) [2] | Blood concentration of 25-hydroxyvitamin D3 resulting from ingestion as dietary supplement ([1]; ingestion of vitamin D3 at the safe upper level (250 μg/day))
1 | C=C1CC[C@H](O)C/C1=C/C=C1\CCC[C@]2(C)[C@@H]([C@H](C)CCCC(C)(C)O)CC[C@@H]12 [25-OH D3, 25-hydroxyvitamin D3] | greater than 375 nmol/L | −1.4 | −6.1 | 1.4 | 6.1 | 68.9 | 111.1 | very effective reduction of blood pressure | 
2 | C=C1CC[C@H](O)C/C1=C/C=C1\CCC[C@]2(C)[C@@H]([C@H](C)CCCC(C)C)CC[C@@H]12 [Vitamin D3, cholecalciferol] |  |  |  |  |  | 70.3 | 117.2 | no effect | about 200 nmol/L
